In patent US10131652B2, “Pyrimidinyloxy benzene derivatives as herbicides” (E. I. DU PONT DE NEMOURS AND COMPANY, priority 2014, dated 2018):

What was measured:
Type in all cases: in vivo
[1] = tested on: barnyardgrass (Echinochloa crus-galli); experiment: Test B pre-/postemergence plant response
How it was run: (§1)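 Greenhouse pots, loam/sand soil; compound formulated with surfactant in non-phytotoxic solvent. Preemergence soil spray and postemergence spray at 1–2 leaf stage run simultaneously. Visual injury, 0–100, about 10 days post-treatment.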

corn (Zea mays) = experiment: Test B pre-/postemergence plant response
How it was run: as §1

[2] = tested on: giant foxtail (Setaria faberii); experiment: Test B pre-/postemergence plant response
How it was run: as §1

[3] = tested on: large (Lg) crabgrass (Digitaria sanguinalis); experiment: Test B pre-/postemergence plant response
How it was run: as §1

[4] = tested on: pigweed (Amaranthus retroflexus); experiment: Test B pre-/postemergence plant response
How it was run: as §1

[5] = tested on: velvetleaf (Abutilon theophrasti); experiment: Test B pre-/postemergence plant response
How it was run: as §1

[6] = tested on: wheat (Triticum aestivum); experiment: Test B pre-/postemergence plant response
How it was run: as §1

[7] = tested on: barnyardgrass (Echinochloa crus-galli); experiment: Test C flooded paddy test plant response; conditions: Flood, 250 g ai/ha; scale of 0 to 100 where 0 is no effect and 100 is complete control; 13 to 15 days
How it was run: (§2)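 Greenhouse paddy assay, 13–15 days. Treatment into 3 cm floodwater over 2-leaf plants; visual 0–100 rating against controls.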

[8] = tested on: ducksalad (Heteranthera limosa); experiment: Test C flooded paddy test plant response; conditions: Flood, 250 g ai/ha; scale of 0 to 100 where 0 is no effect and 100 is complete control; 13 to 15 days
How it was run: as §2

rice (Oryza sativa) = experiment: Test C flooded paddy test plant response; conditions: Flood, 250 g ai/ha; scale of 0 to 100 where 0 is no effect and 100 is complete control; 13 to 15 days
How it was run: as §2

[9] = tested on: small-flower umbrella sedge (Cyperus difformis); experiment: Test C flooded paddy test plant response; conditions: Flood, 250 g ai/ha; scale of 0 to 100 where 0 is no effect and 100 is complete control; 13 to 15 days
How it was run: as §2

[10] = tested on: Italian ryegrass (Lolium multiflorum); experiment: Test B pre-/postemergence plant response
How it was run: as §1

kochia (Kochia scoparia) = experiment: Test B pre-/postemergence plant response
How it was run: as §1

[11] = tested on: ragweed (common ragweed, Ambrosia elatior); experiment: Test B pre-/postemergence plant response
How it was run: as §1

[12] = tested on: blackgrass (Alopecurus myosuroides); experiment: Test B postemergence plant response
How it was run: (§3)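 Injury was assessed visually about 10 days after treatment, scored from 0 (no effect) to 100 (complete control) by comparison with untreated controls. Test chemicals had been applied postemergence to potted plants at the one- to two-leaf stage, grown in loam soil and sand in a greenhouse.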

[13] = tested on: galium (catchweed bedstraw, Galium aparine); experiment: Test B postemergence plant response
How it was run: as §3

[14] = 125 g ai/ha, postemergence, 0 to 100 scale, 0 no effect, 100 complete control
[15] = Postemergence, 500 g ai/ha, 0 to 100 scale (0 no effect, 100 complete control)
[16] = Preemergence, 125 g ai/ha, 0 to 100 scale where 0 is no effect and 100 is complete control
[17] = Preemergence, 500 g ai/ha, 0 to 100 scale (0 no effect, 100 complete control)
[18] = 31 g ai/ha, Preemergence, 0 to 100 scale where 0 is no effect and 100 is complete control
[19] = Postemergence, 31 g ai/ha, 0 to 100 scale (0 no effect, 100 complete control)
[20] = Preemergence, 125 g ai/ha, 0 to 100 scale (0 no effect, 100 complete control)

## Clc1cnc(Oc2ccccc2-c2cccc(Cl)n2)nc1 [Compound 16]
[1]; [14]
  Plant response rating, Barnyardgrass: 0
[1]; [15]
  Plant response rating, Barnyardgrass: 0
[1]; [16]
  Plant response rating, Barnyardgrass: 0
[1]; [17]
  Plant response rating, Barnyardgrass: 0
Corn (Zea mays); [14]
  Plant response rating, Corn: 0
Corn (Zea mays); [15]
  Plant response rating, Corn: 0
Corn (Zea mays); [16]
  Plant response rating, Corn: 0
Corn (Zea mays); [17]
  Plant response rating, Corn: 0
[2]; [14]
  Plant response rating, Foxtail, Giant: 0
[2]; [15]
  Plant response rating, Foxtail, Giant: 0
[2]; [16]
  Plant response rating, Foxtail, Giant: 0
[2]; [17]
  Plant response rating, Foxtail, Giant: 10
[3]; [14]
  Plant response rating, Crabgrass, Large: 0
[3]; [15]
  Plant response rating, Crabgrass, Large: 0
[3]; [16]
  Plant response rating, Crabgrass, Large: 0
[3]; [17]
  Plant response rating, Crabgrass, Large: 10
[4]; [14]
  Plant response rating, Pigweed: 0
[4]; [15]
  Plant response rating, Pigweed: 30
[4]; [16]
  Plant response rating, Pigweed: 0
[4]; [17]
  Plant response rating, Pigweed: 20
[5]; [14]
  Plant response rating, Velvetleaf: 0
[5]; [15]
  Plant response rating, Velvetleaf: 20
[5]; [16]
  Plant response rating, Velvetleaf: 0
[5]; [17]
  Plant response rating, Velvetleaf: 20
[6]; [14]
  Plant response rating, Wheat: 0
[6]; [15]
  Plant response rating, Wheat: 0
[6]; [16]
  Plant response rating, Wheat: 0
[6]; [17]
  Plant response rating, Wheat: 0
[7]
  Barnyardgrass plant response rating: 0
[8]
  Ducksalad plant response rating: 0
Rice (Oryza sativa)
  Rice plant response rating: 0
[9]
  Sedge, Umbrella plant response rating: 0

## Clc1cccc(-c2ccccc2Oc2ncc(Br)cn2)n1 [Compound 17]
[1]; [14]
  Plant response rating, Barnyardgrass: 0
[1]; [15]
  Plant response rating, Barnyardgrass: 0
[1]; [16]
  Plant response rating, Barnyardgrass: 0
[1]; [17]
  Plant response rating, Barnyardgrass: 0
Corn (Zea mays); [14]
  Plant response rating, Corn: 0
Corn (Zea mays); [15]
  Plant response rating, Corn: 0
Corn (Zea mays); [16]
  Plant response rating, Corn: 0
Corn (Zea mays); [17]
  Plant response rating, Corn: 0
[2]; [14]
  Plant response rating, Foxtail, Giant: 0
[2]; [15]
  Plant response rating, Foxtail, Giant: 0
[2]; [16]
  Plant response rating, Foxtail, Giant: 0
[2]; [17]
  Plant response rating, Foxtail, Giant: 0
[3]; [14]
  Plant response rating, Crabgrass, Large: 0
[3]; [15]
  Plant response rating, Crabgrass, Large: 0
[3]; [16]
  Plant response rating, Crabgrass, Large: 0
[3]; [17]
  Plant response rating, Crabgrass, Large: 10
[4]; [14]
  Plant response rating, Pigweed: 0
[4]; [15]
  Plant response rating, Pigweed: 10
[4]; [16]
  Plant response rating, Pigweed: 0
[4]; [17]
  Plant response rating, Pigweed: 0
[5]; [14]
  Plant response rating, Velvetleaf: 0
[5]; [15]
  Plant response rating, Velvetleaf: 20
[5]; [16]
  Plant response rating, Velvetleaf: 0
[5]; [17]
  Plant response rating, Velvetleaf: 10
[6]; [14]
  Plant response rating, Wheat: 0
[6]; [15]
  Plant response rating, Wheat: 0
[6]; [16]
  Plant response rating, Wheat: 0
[6]; [17]
  Plant response rating, Wheat: 0
[7]
  Barnyardgrass plant response rating: 0
[8]
  Ducksalad plant response rating: 0
Rice (Oryza sativa)
  Rice plant response rating: 0
[9]
  Sedge, Umbrella plant response rating: 0

## FC(F)c1ccc(-c2ccccc2Oc2ncc(Cl)cn2)o1 [Compound 239]
[10]; [18]
  Plant response rating, Ryegrass, Italian: 0
[10]; [14]
  Plant response rating, Ryegrass, Italian: 0
[10]; [19]
  Plant response rating, Ryegrass, Italian: 0
[10]; [20]
  Ryegrass, Italian plant response rating: 0
[1]; [18]
  Plant response rating, Barnyardgrass: 0
[1]; [14]
  Plant response rating, Barnyardgrass: 0
[1]; [19]
  Plant response rating, Barnyardgrass: 0
[1]; [20]
  Barnyardgrass plant response rating: 0
Corn (Zea mays); [14]
  Plant response rating, Corn: 20
Corn (Zea mays); [19]
  Plant response rating, Corn: 0
[2]; [18]
  Plant response rating, Foxtail, Giant: 0
[2]; [14]
  Plant response rating, Foxtail, Giant: 0
[2]; [19]
  Plant response rating, Foxtail, Giant: 0
[2]; [20]
  Foxtail, Giant plant response rating: 0
Kochia (Kochia scoparia); [18]
  Plant response rating, Kochia: 0
Kochia (Kochia scoparia); [14]
  Plant response rating, Kochia: 0
Kochia (Kochia scoparia); [19]
  Plant response rating, Kochia: 0
Kochia (Kochia scoparia); [20]
  Kochia plant response rating: 0
[4]; [18]
  Plant response rating, Pigweed: 0
[4]; [14]
  Plant response rating, Pigweed: 20
[4]; [19]
  Plant response rating, Pigweed: 0
[4]; [20]
  Pigweed plant response rating: 0
[11]; [18]
  Plant response rating, Ragweed: 0
[11]; [14]
  Plant response rating, Ragweed: 0
[11]; [19]
  Plant response rating, Ragweed: 0
[11]; [20]
  Ragweed plant response rating: 0
[6]; [14]
  Plant response rating, Wheat: 0
[6]; [19]
  Plant response rating, Wheat: 0
[12]; [14]
  Plant response rating, Blackgrass: 0
[12]; [19]
  Plant response rating, Blackgrass: 0
[13]; [14]
  Plant response rating, Galium: 0
[13]; [19]
  Plant response rating, Galium: 0
[7]
  Barnyardgrass plant response rating: 0
[8]
  Ducksalad plant response rating: 0
Rice (Oryza sativa)
  Rice plant response rating: 0
[9]
  Sedge, Umbrella plant response rating: 0
